This is an account of results in patent publication US10676431B2, “Phenylpyrrolidinone formyl peptide 2 receptor agonists” (BRISTOL-MYERS SQUIBB COMPANY, priority 2018, dated 2020).

Test [1] deals with human FPR1 (Homo sapiens (Human), UniProt P21462). The experiment in a line: FPR1 cyclic adenosine monophosphate (cAMP) assay. The class given is cell-based. To be noted: CHO cells overexpressing human FPR1; forskolin 10 μM, IBMX 200 μM; inhibition of cAMP production, HTRF; read-out: hFPR1 cAMP EC50. As for the experimental part:
FPR2 and FPR1 Cyclic Adenosine Monophosphate (cAMP) Assays. A mixture of forskolin (5 μM final for FPR2 or 10 μM final for FPR1) and IBMX (200 μM final) were added to 384-well Proxiplates (Perkin-Elmer) pre-dotted with test compounds in DMSO (1% final) at final concentrations in the range of 0.020 nM to 100 μM. Chinese Hamster Ovary cells (CHO) overexpressing human FPR1 or human FPR2 receptors were cultured in F-12 (Ham's) medium supplemented with 10% qualified FBS, 250 μg/ml zeocin and 300 μg/ml hygromycin (Life Technologies). Reactions were initiated by adding 2,000 human FPR2 cells per well or 4,000 human FPR1 cells per well in Dulbecco's PBS (with calcium and magnesium) (Life Technologies) supplemented with 0.1% BSA (Perkin-Elmer). The reaction mixtures were incubated for 30 min at room temperature. The level of intracellular cAMP was determined using the HTRF HiRange cAMP assay reagent kit (Cisbio) according to manufacturer's instruction. Solutions of cryptate conjugated anti-cAMP and d2 fluorophore-labelled cAMP were made in a supplied lysis buffer separately. Upon completion of the reaction, the cells were lysed with equal volume of the d2-cAMP solution and anti-cAMP solution. […] The potency and activity of a compound to inhibit cAMP production was then determined by fitting to a 4-parametric logistic equation from a plot of cAMP level versus compound concentrations.
(cAMP levels reflect the balance of adenylyl cyclase and phosphodiesterase activity.)

Test [2] concerns the target human FPR2 (Homo sapiens (Human), UniProt P25090). As to the kind of experiment: FPR2 cyclic adenosine monophosphate (cAMP) assay. The class given is cell-based. To be noted: CHO cells overexpressing human FPR2; forskolin 5 μM, IBMX 200 μM; inhibition of cAMP production, HTRF; read-out: hFPR2 cAMP2 EC50. As for the experimental part:
FPR2 and FPR1 Cyclic Adenosine Monophosphate (cAMP) Assays. A mixture of forskolin (5 μM final for FPR2 or 10 μM final for FPR1) and IBMX (200 μM final) were added to 384-well Proxiplates (Perkin-Elmer) pre-dotted with test compounds in DMSO (1% final) at final concentrations in the range of 0.020 nM to 100 μM. Chinese Hamster Ovary cells (CHO) overexpressing human FPR1 or human FPR2 receptors were cultured in F-12 (Ham's) medium supplemented with 10% qualified FBS, 250 μg/ml zeocin and 300 μg/ml hygromycin (Life Technologies). Reactions were initiated by adding 2,000 human FPR2 cells per well or 4,000 human FPR1 cells per well in Dulbecco's PBS (with calcium and magnesium) (Life Technologies) supplemented with 0.1% BSA (Perkin-Elmer). The reaction mixtures were incubated for 30 min at room temperature. The level of intracellular cAMP was determined using the HTRF HiRange cAMP assay reagent kit (Cisbio) according to manufacturer's instruction. Solutions of cryptate conjugated anti-cAMP and d2 fluorophore-labelled cAMP were made in a supplied lysis buffer separately. Upon completion of the reaction, the cells were lysed with equal volume of the d2-cAMP solution and anti-cAMP solution. After a 1-h room temperature incubation, time-resolved fluorescence intensity was measured using the Envision (Perkin-Elmer) at 400 nm excitation and dual emission at 590 nm and 665 nm. A calibration curve was constructed with an external cAMP standard at concentrations ranging from 1 μM to 0.1 pM by plotting the fluorescent intensity ratio from 665 nm emission to the intensity from the 590 nm emission against cAMP concentrations. The potency and activity of a compound to inhibit cAMP production was then determined by fitting to a 4-parametric logistic equation from a plot of cAMP level versus compound concentrations.

Chain of human FPR1 (P21462 whole entry): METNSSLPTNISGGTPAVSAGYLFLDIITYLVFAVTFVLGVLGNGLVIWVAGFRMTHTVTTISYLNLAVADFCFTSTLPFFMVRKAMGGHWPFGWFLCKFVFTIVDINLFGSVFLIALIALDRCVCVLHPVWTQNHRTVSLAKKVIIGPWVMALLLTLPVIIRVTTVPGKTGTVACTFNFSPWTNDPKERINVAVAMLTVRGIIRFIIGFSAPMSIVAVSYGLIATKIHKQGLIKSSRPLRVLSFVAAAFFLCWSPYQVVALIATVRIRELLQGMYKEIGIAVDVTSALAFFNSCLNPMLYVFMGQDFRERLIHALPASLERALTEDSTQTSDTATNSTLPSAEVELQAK
Chain of human FPR2 (P25090 whole entry): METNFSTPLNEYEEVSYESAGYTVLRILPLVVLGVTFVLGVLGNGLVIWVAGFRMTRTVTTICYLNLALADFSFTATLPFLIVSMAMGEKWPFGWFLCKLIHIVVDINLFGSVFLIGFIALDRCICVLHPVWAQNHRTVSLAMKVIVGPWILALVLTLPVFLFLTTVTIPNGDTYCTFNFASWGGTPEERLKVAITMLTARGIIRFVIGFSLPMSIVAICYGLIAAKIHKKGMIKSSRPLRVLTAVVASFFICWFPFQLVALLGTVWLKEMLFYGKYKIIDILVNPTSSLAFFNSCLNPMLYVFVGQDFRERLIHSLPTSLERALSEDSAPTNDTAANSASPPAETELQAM

As usually defined, the EC50 is the midpoint of the concentration-response curve. `CS(=N)(=O)c1ccccc1-c1ccc(N2CC[C@@H](NC(=O)Nc3ccc(Cl)cc3F)C2=O)c(F)c1F` (some centres unmarked) [Example 58]: the half-maximal effective concentration (EC50) in test [1] stood at 0.61 µM; in test [2], 0.0063 µM.

As to `CS(=O)(=O)Nc1ccccc1-c1ccc(N2CC[C@@H](NC(=O)Nc3ccc(Cl)cc3F)C2=O)c(F)c1` [Example 32], the 50% effective concentration (EC50) in test [1] was determined as 0.25 µM; in test [2], 0.00091 µM.

In the case of `CP(C)(=O)c1ncccc1-c1ccc(N2CC[C@@H](NC(=O)Nc3ccc(C(F)(F)F)cc3F)C2=O)c(F)c1F` [Example 73, (R)-1-(1-(4-(2-(dimethylphosphoryl)pyridin-3-yl)-2,3-difluorophenyl)-2-oxopyrrolidin-3-yl)-3-(2-fluoro-4-(trifluoromethyl)phenyl)urea], the concentration for a half-maximal effect (EC50) in test [1] came to 0.17 µM; in test [2] it was 0.00089 µM.

`CP(C)(=O)c1ccccc1-c1ccc(N2CC[C@@H](NC(=O)Nc3ccc(Cl)cc3F)C2=O)c(Cl)c1Cl` [Example 78]: the concentration giving a half-maximal response (EC50) stood at 0.045 µM in test [1] and 0.0012 µM in test [2].

`CS(=O)(=O)c1ccccc1-c1ccc(N2C(=O)[C@H](NC(=O)Nc3ccc(C(F)(F)F)cc3F)C[C@H]2CO)c(F)c1F` [Example 39]: the figures for the EC50 in test [1] and in test [2] were 0.057 µM and 0.00058 µM, respectively.

Regarding `CS(=O)(=O)c1ccccc1-c1ccc(N2CC[C@@H](NC(=O)Nc3ccc(C(F)(F)F)cc3F)C2=O)c(F)c1F` [Example 29], the figures for the EC50 in test [1] and in test [2] were 0.19 µM and 0.007 µM, respectively.

In the case of `CS(=O)(=O)Nc1ncccc1-c1ccc(N2CC[C@@H](NC(=O)Nc3ccc(Cl)cc3F)C2=O)c(F)c1F` [Example 23], the EC50 in test [1] is 0.7 µM; in test [2] it was 0.0082 µM.

For the compound `CP(C)(=O)c1ccccc1-c1ccc(N2CC[C@@H](NC(=O)Nc3cnc(Cl)cn3)C2=O)c(F)c1F` [Example 63], the EC50 in test [1] came to 4.4 µM; in test [2] it was 0.00567 µM.

In the case of `CS(=O)(=O)c1ccccc1-c1cc(F)c(N2CC[C@@H](NC(=O)Nc3ccc(Cl)cc3F)C2=O)c(F)c1` [Example 52], the EC50 came out at 1.1 µM in test [1] and 0.01 µM in test [2].

Consider `COc1ccc(NC(=O)N[C@@H]2CCN(c3ccc(-c4ccccc4S(C)(=O)=O)c(F)c3F)C2=O)cc1` [Example 54], for which the results for the EC50 in test [1] and in test [2] were 0.9 µM and 0.0055 µM, respectively.

Turning to `O=C(Nc1ccc(C(F)(F)F)cc1F)N[C@@H]1CCN(c2ccc(-c3ccccc3CO)c(F)c2F)C1=O` [Example 31], the EC50 stood at 0.43 µM in test [1] and 0.004 µM in test [2].

With `COP(=O)(OC)c1ccccc1-c1ccc(N2CC[C@@H](NC(=O)Nc3ccc(C(F)(F)F)cc3F)C2=O)c(F)c1F` [Example 108], the EC50 in test [2] turned out to be 0.0014 µM.

For the compound `O=C(Nc1ccc(Cl)cc1F)N[C@@H]1C[C@@H](CO)N(c2ccc(-c3ccccc3F)c(F)c2F)C1=O` [Example 82], the EC50 in test [1] was determined as 0.78 µM; in test [2], 0.0025 µM.

Take `CP(C)(=O)c1ccccc1-c1ccc(N2C(=O)[C@H](NC(=O)Nc3ccc(C(F)(F)F)cc3F)C[C@H]2CN2CCOCC2)c(F)c1F` [Example 131]: the concentration giving a half-maximal response (EC50) was 0.061 µM in test [1] and 0.0012 µM in test [2].

With `CS(=O)(=O)Nc1ccccc1-c1ccc(N2CC[C@@H](NC(=O)Nc3ccc(C(F)(F)F)cc3F)C2=O)c(F)c1F` [Example 33], the concentration for a half-maximal effect (EC50) in test [1] turned out to be 0.47 µM; in test [2], 0.0011 µM.

Turning to `CCP(=O)(CC)c1ccccc1-c1ccc(N2CC[C@@H](NC(=O)Nc3ccc(Cl)cc3F)C2=O)c(F)c1F` [Example 75], the EC50 was determined as 1.18 µM in test [1] and 0.0034 µM in test [2].

On to `CP(C)(=O)c1ncccc1-c1ccc(N2CC[C@@H](NC(=O)Nc3ccc(Cl)cc3F)C2=O)c(F)c1F` [Example 74], for which the EC50 in test [1] amounted to 0.14 µM; in test [2] it was 0.0022 µM.

For the compound `CC1(C)CN(c2ccc(-c3ccccc3P(C)(C)=O)c(F)c2F)C(=O)[C@@H]1NC(=O)Nc1cnc(Cl)cn1` [Example 130], the concentration for a half-maximal effect (EC50) in test [1] amounted to 3 µM; in test [2], 0.0057 µM.

`O=C(Nc1ccc(C(F)(F)F)cc1F)N[C@@H]1CCN(c2ccc(-c3cccc4c3S(=O)(=O)NC4)c(F)c2F)C1=O` [Example 97]: the EC50 in test [1] amounted to 0.11 µM; in test [2] it was 0.0072 µM.

Take `O=C(Nc1ccc(Cl)cc1F)N[C@@H]1CCN(c2ccc(-c3cnn(C(F)F)c3)c(F)c2F)C1=O` [Example 79]: the concentration for a half-maximal effect (EC50) in test [1] is more than 10 µM; in test [2] it was 0.039 µM.

As for `CP(C)(=O)c1ccccc1-c1ccc(N2CC[C@@H](NC(=O)Nc3ccc(C(F)(F)F)cc3F)C2=O)c(Cl)c1Cl` [Example 80], the 50% effective concentration (EC50) in test [1] worked out at 0.086 µM; in test [2], 0.0014 µM.

`CP(C)(=O)c1c(F)cccc1-c1ccc(N2CC[C@@H](NC(=O)Nc3ccc(Cl)cc3F)C2=O)c(F)c1Cl` [Example 85]: the concentration giving a half-maximal response (EC50) was 0.0051 µM in test [1] and 0.00062 µM in test [2].

Regarding `CC(C)c1cc(-c2ccccc2NS(C)(=O)=O)ccc1N1CC[C@@H](NC(=O)Nc2ccc(Cl)cc2F)C1=O` [Example 27], the EC50 in test [1] is 0.11 µM; in test [2], 0.0005 µM.

`CP(C)(=O)c1ccccc1-c1ccc(N2CC[C@@H](NC(=O)Nc3ccc(C(F)(F)F)cc3F)C2=O)c(C(F)(F)F)c1F` [Example 92]: the concentration for a half-maximal effect (EC50) was 0.22 µM in test [1] and 0.0083 µM in test [2].

Consider `CS(=O)(=O)Nc1ccccc1-c1ccc(N2CC[C@@H](NC(=O)Nc3ccc(Cl)cn3)C2=O)c(F)c1F` [Example 17], for which the results for the EC50 in test [1] and in test [2] were 4.1 µM and 0.016 µM, respectively.

As for `CS(=O)(=O)Nc1ncccc1-c1ccc(N2CC[C@@H](NC(=O)Nc3ccc(Cl)cc3F)C2=O)c(C2CC2)c1` [Example 48], the concentration giving a half-maximal response (EC50) in test [1] stood at 0.11 µM; in test [2], 0.0037 µM.

For the compound `CP(C)(=O)c1ccccc1-c1ccc(N2CC[C@@H](NC(=O)Nc3cnc(Cl)cn3)C2=O)c(C2CC2)c1` [Example 62], the EC50 in test [1] stood at 0.72 µM; in test [2], 0.031 µM.

On to `CS(=O)(=O)Nc1ccccc1-c1ccc(N2CC[C@@H](NC(=O)Nc3c(F)cc(Cl)cc3F)C2=O)c(F)c1F` [Example 4], for which the EC50 in test [1] is 1.7 µM; in test [2], 0.00093 µM.

Turning to `CS(=O)(=O)c1ccccc1-c1ccc(N2CC[C@@H](NC(=O)Nc3ccc(Cl)cc3)C2=O)c(F)c1F` [Example 10], the results for the EC50 in test [1] and in test [2] were 0.13 µM and 0.0022 µM, respectively.

With `CP(C)(=O)c1ccccc1-c1ccc(N2CC[C@@H](NC(=O)Nc3ccc(Cl)cc3F)C2=O)c(C(F)(F)F)c1F` [Example 91, (R)-1-(4-Chloro-2-fluorophenyl)-3-(1-(2′-(dimethylphosphoryl)-2-fluoro-3-(trifluoromethyl)-[1,1′-biphenyl]-4-yl)-2-oxopyrrolidin-3-yl)urea], the EC50 in test [1] turned out to be 0.2 µM; in test [2], 0.0057 µM.

Consider `CP(C)(=O)c1ccccc1-c1ccc(N2CC[C@@H](NC(=O)Nc3cccc(Cl)c3)C2=O)c(F)c1F` [Example 134], for which the 50% effective concentration (EC50) amounted to 1500 µM in test [1] and 0.0025 µM in test [2].

As for `N#Cc1ccccc1-c1ccc(N2CC[C@@H](NC(=O)Nc3ccc(Cl)cc3)C2=O)c(F)c1F` [Example 8], the EC50 in test [1] was 0.061 µM; in test [2], 0.002 µM.

For `CP(C)(=O)c1ccccc1-c1ccc(N2CC[C@@H](NC(=O)Nc3ccc(C(F)(F)F)cc3F)C2=O)c(F)c1OC(F)(F)F` [Example 88], the EC50 in test [1] turned out to be 0.0049 µM; in test [2], 0.0053 µM.

On to `CCOP(C)(=O)c1ccccc1-c1ccc(N2CC[C@@H](NC(=O)Nc3ccc(C(F)(F)F)cc3F)C2=O)c(F)c1F` (some centres unmarked) [Example 105], for which the half-maximal effective concentration (EC50) in test [2] worked out at 0.0069 µM.

In the case of `CCOP(C)(=O)c1ccccc1-c1ccc(N2CC[C@@H](NC(=O)Nc3ccc(C(F)(F)F)cc3F)C2=O)c(F)c1F` (some centres unmarked) [Example 104], in test [2], the EC50 came to 0.0052 µM.

Take `CCOP(C)(=O)c1ccccc1-c1ccc(N2CC[C@@H](NC(=O)Nc3ccc(Cl)cc3F)C2=O)c(F)c1F` (some centres unmarked) [Example 101]: the EC50 in test [2] worked out at 0.00066 µM.
